{"source": "patent US20240269170A1", "about": "“Treatment of Inflammatory Conditions or Diseases” (Queen Mary University of London, priority 2021, published 2024)", "tested_on": "K/B×N serum induced arthritis in mice", "assay": "K/B×N serum transfer inflammatory arthritis, MCTR3 given immediately after disease onset", "format": "in vivo, mouse", "procedure": "FIG. 7: MCTR3 limits joint inflammation. Mice were administered K/B×N serum on days 0 and 2 and then treated with MCTR3 (100 ng/mouse) or Vehicle (PBS+0.1% EtOH) on days 3 and 5. Disease course was evaluated by assessing (A) clinical scores. (B-C) On day 7 joints were collected and disease severity was evaluated using (B) H&E Staining and (C) glycosaminoglycan content was assessed using Safranin-O staining, arrows denote Safranin-O staining in cartilage. Results for A are presented as mean±SEM. Statistical differences for A were evaluated using Two-Way ANOVA. n=4 mice per group. IFP=intrapatellar fat, M=meniscus, TB=Tibia, PF=Pannus formation, Red arrows denote leukocyte infiltration. (D-E) Lipid mediator profiles were determined using LC-MS/MS-based lipid mediator profiling and evaluated using PLS-DA. (D) scores plot with highlighted regions denoting the clusters representing cells from each group and (E) VIP scores for top 15 mediators. Each dot in the score plot represents a separate mouse.\nFor this purpose, we employed a serum transfer model of inflammatory arthritis, which relies on the activation of the innate immune system replicating the effector phase of rheumatoid arthritis (Korganow et al., 1999, Immunity 10, 451-461). […] We next evaluated whether MCTR3 administration also regulated the joint lipid mediator profile. Using partial least square discriminant analysis, which produces a regression model built using concentrations of lipid mediators differently expressed between the two groups, we found a shift in joint lipid mediator concentrations in mice treated with MCTR3. This shift was linked with a downregulation of pro-inflammatory and nociceptive eicosanoids including PGE2 and PGF2a and an upregulation of pro-resolving and anti-nociceptive mediators such as MaR1 and PDX (FIG. 7D,E).\nAll samples were extracted using solid-phase extraction columns as in (Gomez et al., 2020, Nat Commun 11, 5420). In brief, samples were placed in ice-cold methanol containing deuterated internal standards (d8-5S-HETE, d4-LTB4, d5-LXA4, d4-PGE2, d5-RvD2, d5-MaR1, d5-MaR2, d5-RvD3, d4-RvE1, d5-17R-RvD1, d5-LTC4, d5-LTD4 and d5-LTE4) representing each chromatographic region of identified LM. Following protein precipitation (−20° C. for a minimum of 45 min), samples were centrifuged and supernatants extracted using an ExtraHera System (Biotage) using solid-phase extraction with Isolute C18 500 mg columns (Biotage). Methyl formate and methanol fractions were collected, brought to dryness and resuspended in phase (methanol/water, 1:1, vol/vol) for injection on a Shimadzu LC-20AD HPLC and a Shimadzu SIL-20AC autoinjector, paired with a QTrap 5500 or QTrap 6500^+ (Sciex). In the analysis of mediators eluted in the methyl formate fraction, an Agilent Poroshell 120 EC-C18 column (100 mm×4.6 mm×2.7 μm) was kept at 50° C. and mediators eluted using a mobile phase consisting of methanol/water/acetic acid of 20:80:0.01 (vol/vol/vol) that was ramped to 50:50:0.01 (vol/vol/vol) over 0.5 min and then to 80:20:0.01 (vol/vol/vol) from 2 min to 11 min, maintained till 14.5 min and then rapidly ramped to 98:2:0.01 (vol/vol/vol) for the next 0.1 min. This was subsequently maintained at 98:2:0.01 (vol/vol/vol) for 5.4 min, and the flow rate was maintained at 0.5 ml/min. QTrap 5500 was operated in negative ionization mode using a multiple reaction monitoring method. […]", "key": {"[1]": {"conditions": "100 ng/mouse on days 3 and 5, LC-MS/MS, PLS-DA"}, "[2]": {"conditions": "100 ng/mouse on days 3 and 5, joints day 7"}}, "data": [{"smiles": "CC/C=C\\C/C=C\\C[C@H](O)[C@@H](/C=C/C=C/C=C\\C/C=C\\CCC(=O)O)SC[C@H](N)C(=O)O", "note": "[MCTR3, 13R-cysteinyl, 14S-hydroxy-4Z, 7Z, 9E, 11E, 13R, 14S, 16Z, 19Z-docosahexaenoic acid]", "values": [{"measurement": "joint pro-inflammatory and nociceptive eicosanoids including PGE2 and PGF2a", "setting": "[1]", "value": "downregulation"}, {"measurement": "joint pro-resolving and anti-nociceptive mediators such as MaR1 and PDX", "setting": "[1]", "value": "upregulation"}, {"measurement": "leukocyte infiltration (H&E)", "setting": "[2]", "value": "decrease"}, {"measurement": "safranin staining (glycosaminoglycan content in the cartilage)", "setting": "[2]", "value": "increased"}, {"measurement": "clinical scores", "setting": "100 ng/mouse on days 3 and 5, vs vehicle", "value": "significant reduction"}]}]}
